The results in this text go back to patent US12232496B2, “Methods and system for stimulating root exudation in plants” (YEDA RESEARCH AND DEVELOPMENT CO. LTD, priority 2018, dated 2025).

In this assay the test system is Catharanthus roseus. Briefly: Split-root Catharanthus roseus seedlings: Root A stimulated, exudates analysed by MRM-LC-MS/MS. The format is in vivo. The following applies: applied to Root A; Root B exudate a week after stimulation; FIG. 16B. How it is done:
Split roots are generated by cutting off the primary root. Lateral roots are then regenerated until they are long enough for the lateral roots to be placed directly in separate hydroponics or aeroponics containers. Each container is fed with plant medium.
Catharanthus roseus were grown, and split roots were obtained using the methods of Example 2. After lateral roots emerged, roots were aseptically placed separately in two 20 ml glass containers containing 0.5× Hoagland nutrient solution. Similar to Example 8, Root A of seedlings was stimulated with methyl-jasmonate, while growing in hydroponics using plant nutrient medium. Plants were incubated at 24° C. with a photoperiod of 16 h. A week after stimulation, the plant medium containing exudates from Root A and B were collected, filtered and extracted for LC-MS analysis. FIG. 16A depicts the MRM-LC-MS/MS analysis of C. roseus exudates. Vinca alkaloids present in the exudates of Root B after methyl jasmonate stimulation (FIG. 16A, top) and control plants (FIG. 16A, bottom) were analyzed via total ion current chromatograms. The quantification of three vinca alkaloids (19S-Vindolinine_RT_3.93, Vindolinine_RT_4.96, and Catarantine_11.77) was performed using an external standard curve of these three metabolites (FIG. 16B). […]

Regarding `CC/C=C\CC1C(=O)CCC1CC(=O)OC` (stereo not shown) [Methyl jasmonate, methyl jasmonate], the “Vindolinine found in Root B exudate of treated plants, fold increase” value is “up to 32 ×”.
